From patent publication US10010547B2 (CASCADIAN THERAPEUTICS, INC., priority 2014, dated 2018)
Read-outs that look alike come from different tables or passages of the source.

Legend:
[1] = molecular target: Chk-1 kinase (Homo sapiens (Human), UniProt O14757); assay: Chk-1 Kinase Inhibiting Activity (33P-ATP filter assay, CHKtide substrate); assay type: biochemical
Outline: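 Full-length N-terminal GST-tagged human Chk-1 from insect cells, 0.5 nM final, with 20 μM peptide substrate and 33P-ATP in HEPES pH 7.5 buffer with 1% DMSO. Reaction ran 120 minutes at room temperature; incorporated radioactivity captured on P81 filters and counted for IC50.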

[2] = test system: MIA PaCa-2 cells; assay: Gemcitabine Combination Cell Assay (Cell Titer Glo); assay type: cell-based; conditions: MIA PaCa-2 cells, 72 h; for IC50: Homo sapiens, Chk1 inhibitor alone, read-out: Chk1 IC50; for 10xLS: approximate concentration of Chk1 inhibitor that results in a 10-fold reduction in the IC50 of gemcitabine alone; for 2xLS: approximate concentration of Chk1 inhibitor that results in a two-fold reduction in the IC50 of gemcitabine alone
Outline: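 MIA PaCa-2 cells were treated 72 h with half-log dilutions of Chk1 inhibitor (top 3000 nM) and gemcitabine (top 100 nM), alone and in full matrix; viability by CellTiter-Glo luminescence. IC50s from four-parameter fit; Chk1 inhibitor concentrations giving two- and ten-fold lowering of gemcitabine IC50 were estimated.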

[3] = against Chk-1 kinase, read-out: IC50

Sequence of Chk-1 kinase (O14757 whole entry): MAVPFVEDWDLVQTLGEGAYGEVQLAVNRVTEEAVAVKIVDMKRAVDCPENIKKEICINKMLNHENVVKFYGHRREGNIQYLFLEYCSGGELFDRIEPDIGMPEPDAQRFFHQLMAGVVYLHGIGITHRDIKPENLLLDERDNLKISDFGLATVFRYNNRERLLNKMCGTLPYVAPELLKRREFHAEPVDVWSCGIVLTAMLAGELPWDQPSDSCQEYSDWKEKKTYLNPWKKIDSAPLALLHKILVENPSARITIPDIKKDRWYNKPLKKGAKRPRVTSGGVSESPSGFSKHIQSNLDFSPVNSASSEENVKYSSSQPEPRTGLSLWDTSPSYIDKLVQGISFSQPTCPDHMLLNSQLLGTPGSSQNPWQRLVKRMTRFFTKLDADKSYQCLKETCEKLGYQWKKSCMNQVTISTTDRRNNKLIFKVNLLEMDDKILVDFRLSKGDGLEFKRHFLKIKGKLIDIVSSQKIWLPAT

IC50 [1, 3]	IC50 [2]	Structure (SMILES)	10xLS [2]	2xLS [2]	IC50 [1]
20 nM	> 3000 nM	COc1cc(C2CCNCC2)ccc1-c1cc(Nc2ccc(C#N)cn2)n[nH]1 [Example 50, 6-[[5-[2-methoxy-4-(4-piperidyl)phenyl]-1H-pyrazol-3-yl]amino]pyridine-3-carbonitrile]	3000 nM	300 nM	–
14 nM	> 3000 nM	COc1cc(C2CCN(C)CC2)ccc1-c1cc(Nc2ccc(C#N)cn2)n[nH]1 [Example 25, 6-[[5-[2-methoxy-4-(1-methyl-4-piperidyl)phenyl]-1H-pyrazol-3-yl]amino]pyridine-3-carbonitrile]	>3000 nM	300 nM	–
0.11 nM	107 nM	CCN1CCCN(c2ccc(-c3cc(Nc4cnc(C#N)cn4)n[nH]3)c(OC)c2)CC1 [Example 83, 5-[[5-[4-(4-ethyl-1,4-diazepan-1-yl)-2-methoxy-phenyl]-1H-pyrazol-3-yl]amino]pyrazine-2-carbonitrile]	<100 nM	<3 nM	–
0.69 nM	136 nM	COc1cc(O[C@@H]2CCN(C)C2)ccc1-c1cc(Nc2cnc(C#N)cn2)n[nH]1 [Example 78, 5-[[5-[2-methoxy-4-[(3R)-1-methylpyrrolidin-3-yl]oxy-phenyl]-1H-pyrazol-3-yl]amino]pyrazine-2-carbonitrile]	100 nM	10 nM	–
0.025 nM	142 nM	COc1cc(CNCC2CC2)ccc1-c1cc(Nc2cnc(C#N)cn2)n[nH]1 [Example 130, 5-[[5-[4-[(cyclopropylmethylamino)methyl]-2-methoxy-phenyl]-1H-pyrazol-3-yl]amino]pyrazine-2-carbonitrile]	<100 nM	3 nM	–
0.058 nM	390 nM	CCNCc1ccc(-c2cc(Nc3cnc(C#N)cn3)n[nH]2)c(OC)c1 [Example 90, 5-[[5-[4-(ethylaminomethyl)-2-methoxy-phenyl]-1H-pyrazol-3-yl]amino]pyrazine-2-carbonitrile]	<300 nM	10 nM	–
0.016 nM	132 nM	COc1cc(N2CCN(C)[C@H](C)C2)ccc1-c1cc(Nc2cnc(C#N)cn2)n[nH]1 [Example 92, 5-[[5-[4-[(3R)-3,4-dimethylpiperazin-1-yl]-2-methoxy-phenyl]-1H-pyrazol-3-yl]amino]pyrazine-2-carbonitrile]	30 nM	<3 nM	–
0.23 nM	235 nM	COc1cc(C2C[C@H](C)N[C@@H](C)C2)ccc1-c1cc(Nc2cnc(C#N)cn2)n[nH]1 (stereo partly drawn) [Example 47, 5-[[5-[4-[(2S,6S)-2,6-dimethyl-4-piperidyl]-2-methoxy-phenyl]-1H-pyrazol-3-yl]amino]pyrazine-2-carbonitrile]	100 nM	3 nM	–
0.37 nM	838 nM	COc1cc(CNc2ccccn2)ccc1-c1cc(Nc2cnc(C#N)cn2)n[nH]1 [Example 31, 5-[[5-[2-methoxy-4-[(2-pyridylamino)methyl]phenyl]-1H-pyrazol-3-yl]amino]pyrazine-2-carbonitrile]	100 nM	3 nM	–
0.085 nM	1800 nM	COc1cc(NCCN2CCOCC2)ccc1-c1cc(Nc2cnc(C#N)cn2)n[nH]1 [Example 16, 5-[[5-[2-methoxy-4-(2-morpholinoethylamino)phenyl]-1H-pyrazol-3-yl]amino]pyrazine-2-carbonitrile]	100 nM	<3 nM	–
0.054 nM	334 nM	COc1cc(OC2CCN(C(C)C)CC2)ccc1-c1cc(Nc2cnc(C#N)cn2)n[nH]1 [Example 135, 5-[[5-[4-[(1-isopropyl-4-piperidyl)oxy]-2-methoxy-phenyl]-1H-pyrazol-3-yl]amino]pyrazine-2-carbonitrile]	100 nM	<3 nM	–
0.071 nM	263 nM	COc1cc(CNC(C)C)ccc1-c1cc(Nc2cnc(C#N)cn2)n[nH]1 [Example 59, 5-[[5-[4-[(isopropylamino)methyl]-2-methoxy-phenyl]-1H-pyrazol-3-yl]amino]pyrazine-2-carbonitrile]	100 nM	3 nM	–
17 nM	> 3000 nM	COc1cc(C2CCN(C)CC2)ccc1-c1cc(Nc2ccc(C#N)c(F)c2)n[nH]1 [Example 30, 2-fluoro-4-[[5-[2-methoxy-4-(1-methyl-4-piperidyl)phenyl]-1H-pyrazol-3-yl]amino]benzonitrile]	>3000 nM	1000 nM	–
0.3 nM	2210 nM	COc1cc(CN(C)CCN2CCOCC2)ccc1-c1cc(Nc2cnc(C#N)cn2)n[nH]1 [Example 15, 5-[[5-[2-methoxy-4-[[methyl(2-morpholinoethyl)amino]methyl]phenyl]-1H-pyrazol-3-yl]amino]pyrazine-2-carbonitrile]	~3000 nM	~5 nM	–
0.046 nM	278 nM	COc1cc(OC[C@@H]2CCCN2C(C)C)ccc1-c1cc(Nc2cnc(C#N)cn2)n[nH]1 [Example 129, 5-[[5-[4-[[(2S)— 1-isopropylpyrrolidin-2-yl]methoxy]-2-methoxy-phenyl]-1H-pyrazol-3-yl]amino]pyrazine-2-carbonitrile]	<100 nM	<3 nM	–

Structure (SMILES)	IC50 [1, 3]	IC50 [2]	10xLS [2]	2xLS [2]	IC50 [1]
COc1cc(N2CCNCC2)ccc1-c1cc(Nc2cnc(C#N)cn2)n[nH]1 [Example 46, 5-[[5-(2-methoxy-4-piperazin-1-yl-phenyl)-1H-pyrazol-3-yl]amino]pyrazine-2-carbonitrile]	–	442 nM	<30 nM	<3 nM	0.054 nM
